In paper PMC12527173, “Cytotoxic, anti-inflammatory, antioxidant, and anti-glyoxalase-I evaluation of chelating substances: In silico and in vitro study” (PLOS One, 2025):
Where two headings read alike, the source gives them in different places.

How the values were obtained:
[1] = tested on: HCT116 colorectal cancer cell line; test: SRB cytotoxicity assay, HCT116; format: cell-based; details: Homo sapiens, HCT-116, 72 h incubation, n = 12, read-out: Cytotoxicity (as of %Control) IC50 value HCT116
Description: (§1) The cancer cell lines were cultured in DMEM supplemented with 10% FBS (Bio Whittaker, Verviers, Belgium), HEPES Buffer (10 mM), gentamicin (50 µg/mL), L-glutamine (100 μg/mL), streptomycin ([…]), penicillin (100 µg/mL), and 4-(2-hydroxyethyl)-1-piperazineethanesulfonic acid (HEPES) Buffer (Sigma, St. Luis, MO, USA). The Sulforhodamine B used was obtained from Santa Cruz Biotechnology, Inc. in Texas, USA. […] Periodontal ligament fibroblasts (PDL) were utilized to assess specific cytotoxicity. Cancer cell lines that have survived offer several benefits. They provide a consistent and uninterrupted source of cells, so bypassing any ethical concerns related to the use of human tissue. Additionally, they are cost-effective. The cytotoxicity levels were assessed using the Sulforhodamine B (SRB) colorimetric assay, provided by Santa Cruz Biotechnology, Inc. in Texas, USA. The Spectro Scan 80D UV-VIS spectrophotometer, manufactured by Sedico Ltd. in Nicosia, Cyprus, was employed for this cytotoxicity screening. The cells were co-incubated with substances or a reference agent at various doses ranging from 5 to 200 μg/mL. […] The reduction in cell viability was analyzed by plotting Dose-response curves and expressing the data as a percentage of the control optical density. The IC50 values were obtained using regression analysis.

[2] = tested on: HeLa uterine cervix adenocarcinoma cell line; test: SRB cytotoxicity assay, HeLa; format: cell-based; details: Homo sapiens, 72 h incubation, n = 12, read-out: Cytotoxicity (as of %Control) IC50 value Hela cervix malignancy
Description: as §1

[3] = DPPH free radical scavenger assay; details: DPPH radical scavenging; n = 12
Text: This approach relies on the reduction of the radicals, which causes a change in colour from oxidized purple to reduced yellow. Primarily, Diphenyl-2-picryl-hydrazyl (DPPH) is reduced in a solution of methanol (MeOH) when a chemical that donates hydrogen is present. This reduction is due to the creation of the non-radical form DPPH-H. The alteration in colour can be precisely assessed by employing a spectrophotometer within the wavelength range of 515–520 nm. Unlike other assays for radical scavenging, the DPPH radical is stable and yields consistent spectroscopic data. A 0.2 mM DPPH solution was diluted with MeOH and then combined with treatment compounds and ascorbic acid in a 1:1 concentration ratio using a 96-well plate. […] The solution was then incubated for one hour, isolated from light. Subsequently, the alteration in absorbance at a wavelength of 517 nm was quantified using a microplate reader manufactured by Bio-Tek Instrument in the United States. Ascorbic acid served as a strong and traditional benchmark for comparing the effectiveness of radical scavenging agents. The DPPH radical scavenging activity inhibition was calculated using the following equation, where A denotes photometric absorbance: The formula to calculate the percentage difference between a control and a sample is: (A control – A sample)/ A control x 100% [71, 72].

[4] = tested on: SW480 colorectal cancer cell line; test: SRB cytotoxicity assay, SW480; format: cell-based; details: Homo sapiens, 72 h incubation, n = 12, read-out: Cytotoxicity (as of %Control) IC50 value SW480
Description: as §1

[5] = tested on: Human PC3 prostate cancer cell line; test: SRB cytotoxicity assay, PC3; format: cell-based; details: 72 h incubation, n = 12, read-out: Cytotoxicity (as of %Control) IC50 value PC3 prostate malignancy
Description: as §1

[6] = tested on: A549 lung cancer cell line; test: SRB cytotoxicity assay, A549; format: cell-based; details: Homo sapiens, 72 h incubation, n = 12, read-out: Cytotoxicity (as of %Control) IC50 value A549 lung malignancy
Description: as §1

[7] = tested on: CACO2 colorectal cancer cell line; test: SRB cytotoxicity assay, CACO2; format: cell-based; details: Homo sapiens, Caco-2, 72 h incubation, n = 12, read-out: Cytotoxicity (as of %Control) IC50 value CACO2
Description: as §1

[8] = tested on: Breast cancer cell line MCF7; test: SRB cytotoxicity assay, MCF7; format: cell-based; details: Homo sapiens, 72 h incubation, n = 12, read-out: Cytotoxicity (as of %Control) IC50 value MCF7 mammary malignancy
Description: as §1

[9] = tested on: A375 human skin cancer cell line; test: SRB cytotoxicity assay, A375; format: cell-based; details: A-375, 72 h incubation, n = 12, read-out: Cytotoxicity (as of %Control) IC50 value A375 skin melanoma
Description: as §1

[10] = SRB cytotoxicity assay, normal PDL fibroblasts; format: cell-based; details: normal periodontal ligament (PDL) fibroblasts, 72 h incubation, 0.1–200 µM range, read-out: Cytotoxicity (as of %Control) IC50 value PDL fibroblasts
Description: as §1

[11] = tested on: T47D breast cancer cell line; test: SRB cytotoxicity assay, T47D; format: cell-based; details: Homo sapiens, 72 h incubation, n = 12, read-out: Cytotoxicity (as of %Control) IC50 value T47D mammary malignancy
Description: as §1

[12] = tested on: LPS-primed RAW 264.7 murine macrophages (nitrite / iNOS); test: Anti-inflammatory (nitrite) determination in LPS-primed macrophages; format: cell-based; details: Mus musculus, read-out: iNOS- IC50 value
Description: The RAW 264.7 mouse macrophage cell line (ATCC® TIB-71) was cultivated in high glucose DMEM with 10% foetal bovine serum (FBS), 100 U/mL penicillin, 100 μg/mL streptomycin, and 100 μg/mL L-glutamate. The cells were incubated at 37°C in a humidified environment with 95% air and 5% CO2. Confluent macrophages (2 x 10^5/well) were cultured with lipopolysaccharide (LPS; 20 μg/mL; Sigma, St. Luis, MO, USA) and indomethacin (25–200 μg/mL) as the positive control, along with various concentrations (5–200 μg/mL) of treatment compounds. The cells were incubated for 24 hours. 100 μL of Griess reagent were combined with 100 μL portions of cell culture medium and left to incubate at room temperature for 10 minutes. The absorbance at a wavelength of 550 nm was measured using a microplate reader, namely the Spectro Scan 80D UV-VIS spectrophotometer manufactured by Sedico Ltd. in Nicosia, Cyprus. The nitrite concentration was assessed by comparing it to a standard curve of sodium nitrite. A cytotoxicity protocol using SRB was conducted to assess the impact of the test substances under study on RAW 264.7 viability.

[13] = tested on: PANC1 pancreatic cell line; test: SRB cytotoxicity assay, PANC1; format: cell-based; details: Homo sapiens, PANC-1, 72 h incubation, n = 12, read-out: Cytotoxicity (as of %Control) IC50 value PANC1
Description: as §1

[14] = tested on: SW620 colorectal cancer cell line; test: SRB cytotoxicity assay, SW620; format: cell-based; details: Homo sapiens, SW-620, 72 h incubation, n = 12, read-out: Cytotoxicity (as of %Control) IC50 value SW620
Description: as §1

[15] = RAW264.7, LPS-primed RAW 264.7, nitrite by Griess, 24 h, n = 12

Structure (SMILES) | IC50 [1] | IC50 [2] | IC50 [3] | IC50 [4] | IC50 [5] | IC50 [6] | IC50 [7] | IC50 [8] | IC50 [9] | IC50 at 72 h [10] | IC50 [11] | IC50 [12, 15] | IC50 [13] | IC50 [14] | IC50 ([12]; RAW264.7, 24 h)
C[C@]12CC[C@@H]3c4ccc(O)c(O)c4CC[C@H]3[C@@H]1CC[C@@H]2O [4-hydroxy-estradiol] | 124 ± 7.8 µM | 29.8 ± 4.74 µM | 506 ± 102 µM | 109 ± 6.86 µM | 82.2 ± 8.56 µM | 15.2 ± 1.34 µM | 107 ± 4.77 µM | 139.8 ± 1.13 µM | 47.1 ± 1.9 µM | > 200 µM | 51.5 ± 5.2 µM | 0.25 ± 0.04 µM | 66.9 ± 2.69 µM | 142 ± 16.5 µM | 
O=c1cc(O)cc(/C=C/c2ccc(O)c(O)c2)o1 [Hispidin] | 198 ± 12.2 µM | 122 ± 1.34 µM | 26.3 ± 0.65 µM | 34.6 ± 3.11 µM | 139 ± 13.6 µM | 26 ± 5.22 µM | 74.3 ± 1.13 µM | 384 ± 7.57 µM | 98.9 ± 9 µM | > 200 µM | 52.6 ± 0.69 µM | 3.47 ± 0.49 µM | 130 ± 2.08 µM | 34.3 ± 6.52 µM | 
O=C1c2ccc(O)c(O)c2C(=O)c2c(O)ccc(O)c21 [Quinalizarin] | 72.2 ± 5.7 µM | 85.51 ± 0.44 µM | 580 ± 26.5 µM | 118 ± 3.04 µM | 143.1 ± 0.18 µM | 7.9 ± 0.71 µM | 109 ± 9.26 µM | 33.2 ± 0.78 µM | 48.6 ± 1.8 µM | > 200 µM | 37.7 ± 4.78 µM | 1.85 ± 0.34 µM | 127 ± 2.52 µM | 40.7 ± 2.21 µM | 
CC(C)=CC[C@@H](O)C1=CC(=O)c2c(O)ccc(O)c2C1=O [Shikonin] | 108 ± 2.6 µM | 13.9 ± 1.91 µM | 34.4 ± 5.04 µM | 41.6 ± 6.37 µM | 176.2 ± 1.25 µM | 54 ± 5.8 µM | 43.8 ± 4.97 µM | 37.8 ± 3.89 µM | 56.5 ± 6.9 µM | > 200 µM | 30.9 ± 3.66 µM |  | 80 ± 2.11 µM | 60.3 ± 2.07 µM | 0.27 ± 0.05 µM
Cc1ccc(C(=O)c2cc(O)c(O)c([N+](=O)[O-])c2)cc1 [Tolcapone, reference compound] | 86.2 ± 6.6 µM | 39.35 ± 0.35 µM | 92.1 ± 2.4 µM | 165 ± 6.58 µM | 257 ± 37.1 µM | 62 ± 2.21 µM | 94.8 ± 6.65 µM | 25.6 ± 1.49 µM | 64.1 ± 1.1 µM | > 200 µM | 26.9 ± 0.35 µM | 1.19 ± 0.17 µM | 119 ± 9.28 µM | 105 ± 8.35 µM | 
CC(/C=C/C(=O)NO)=C\[C@@H](C)C(=O)c1ccc(N(C)C)cc1 [Trichostatin A, reference compound] | 14 ± 2.5 µM | 1.4 ± 0.2 µM | 99.3 ± 15.5 µM | 44.3 ± 4.67 µM | 47.5 ± 3.96 µM | 2 ± 0.21 µM | 27.1 ± 1.28 µM | 2.25 ± 0.49 µM | 5.6 ± 0.6 µM | > 200 µM | 14.7 ± 0.28 µM | 1.69 ± 0.12 µM | 95.8 ± 8.2 µM | 19.5 µM | 
